Results: ChEMBL document CHEMBL1157539, “Thousands of chemical starting points for antimalarial lead identification” (Nature, 2010)

test system: Plasmodium falciparum; experiment: GSK_TCMDC: Inhibition of Plasmodium falciparum 3D7 in whole erythrocytes, using parasite LDH activity as an index of growth.; format: functional, organism-based; conditions: Plasmodium falciparum, 3D7

`CCC(Cc1cnc2nc(N)nc(N)c2n1)c1ccc(C(=O)O)cc1` (stereo not drawn) and `Nc1nc(N)c2c(ccc3nn(Cc4cccnc4)cc32)n1` are within 1.5-fold of each other in XC50: 250 nM for the first, 355 nM for the second.

`CC(C)[C@H](NC(=O)c1ccc(O)c(-c2ccc(Cl)c(Cl)c2)c1)C(=O)NCCN(C)C` and `CCCCNC(=O)[C@H](CC1CCCCC1)NC(=O)c1ccc(O)c(-c2ccc(OC)cc2)c1` are within 1.5-fold of each other in XC50: 1050 nM for the first, 920 nM for the second.

`CCN(CCN(C)C)Cc1ccc(-c2ccc(NS(=O)(=O)c3cccc(Cl)c3)cc2)cc1` and `COc1ccc(C(=O)CCC(=O)N(Cc2ccc(-c3ccc(CNCCc4ccccc4)cn3)cc2)C(C)CN(C)C)cc1F` (stereo not drawn) are within 1.5-fold of each other in XC50: 523 nM for the first, 747 nM for the second.

`COc1cccc(O)c1CN1CCC2(CCCN(Cc3ccc(F)cc3)C2)C1` (stereo not drawn) and `COc1cccc2c1CCN(CCN1CCC(NC(=O)c3ccc(-c4cccc(Cl)c4Cl)cc3)CC1)C2` are within 1.5-fold of each other in XC50: 865 nM for the first, 699 nM for the second.

Compared with `CC(C)(C)c1ccc(CNC(=O)c2ccc(-c3nc4cc(C(C)(C)C)ccc4[nH]3)cc2)cc1`, `CC(C)NCc1ccc(-c2cccc(-c3nc4cc(C(F)(F)F)ccc4[nH]3)c2)cc1` is 3.2-fold lower in XC50: 840 nM for the first, 262 nM for the second.

`CCCCC(=O)Nc1ccc(Nc2nc(C)cc(N3CCCC3)n2)cc1` and `CCN(CCCN1CCCCC1)c1nc(C)cc(Nc2ccc(Cl)cc2)n1` are within 1.5-fold of each other in XC50: 1060 nM for the first, 837 nM for the second.

`Cc1c(CCC#N)c(NCc2ccccc2)n2c(nc3ccccc32)c1C#N` and `Cc1cc(NCCCCCCCCNc2cc(C)nc3ccccc23)c2ccccc2n1` are within 1.5-fold of each other in XC50: 876 nM for the first, 985 nM for the second.

`O=C1C[C@@H]([S+]([O-])Cc2nccs2)N1CCOCCCCCCc1ccc(Cl)cc1` (stereo partly drawn) and `CCCCCCOc1ccc(C(=O)N[C@H]2CCN(CCCCCNC(=O)/C=C/c3ccc(Cl)c(Cl)c3)C2)cc1` are within 1.5-fold of each other in XC50: 1020 nM for the first, 695 nM for the second.

Compared with `COc1ccccc1N1CCN(C(C(=O)NCc2ccc3c(c2)OCO3)c2ccc3c(c2)OCCCO3)CC1` (stereo not drawn), `O=C(NCCCCN1CCN(c2cccc3c2CCCC3)CC1)c1ccc(NC(=O)c2ccc(Cl)cc2)cc1` is 2.5-fold lower in XC50: 1120 nM for the first, 447 nM for the second.

First: Cc1cc2nc(N=C3NC4(c5ccccn5)NC(=Nc5nc6cc(C)c(C)cc6[nH]5)NC4(c4ccccn4)N3)[nH]c2cc1C (stereo not drawn)
Second: COc1cc2nc(NC3CCN(Cc4ccccc4)CC3)nc(N)c2cc1OC
The XC50 of the first is 4.1-fold higher: 683 nM for the first, 166 nM for the second.

Compared with `COc1cc(NC(=O)/C=C/c2ccccc2OC(F)(F)F)cc(OCCN2CCC(O)(c3ccccc3)CC2)c1`, `CNC(=O)C1Cc2c([nH]c3ccc(Cl)cc23)C2(CCN(CCc3ccccc3)CC2)N1` (stereo not drawn) is 3.1-fold higher in XC50: 285 nM for the first, 893 nM for the second.

`COc1cc(NC(=O)c2cc([N+](=O)[O-])ccc2NC(=O)CNC2CCCC(C)C2C)cc(OC)c1` (stereo not drawn) and `COCCOc1cc(C)c(C2CCN(CCCCNC(=O)c3ccc(NC(=O)c4ccc(Cl)cc4)cc3)CC2)cc1C` are within 1.5-fold of each other in XC50: 1040 nM for the first, 951 nM for the second.

`Cc1n[nH]c2cc(Nc3ccnc(Nc4ccc(CN5CCOCC5)cc4)n3)ccc12` and `Cc1cnc(Nc2cccc(CCN3CCOCC3)c2)nc1NC(C)C` are within 1.5-fold of each other in XC50: 950 nM for the first, 738 nM for the second.

`CC(C)c1ccc(NC(=O)c2ccc(C(=O)NC3CCN(CC4CCCCC4)C3)cc2)cc1` (stereo not drawn) and `O=C(NCCCCN1CCC(C(c2ccccc2)c2ccccc2)CC1)c1ccc(NC(=O)c2ccc(Cl)cc2)cc1` are within 1.5-fold of each other in XC50: 792 nM for the first, 769 nM for the second.

`CN(C)CCCOc1cccc(NC(=O)Nc2ccc(Cl)c(Cl)c2)c1` and `O=C(Nc1ccc(F)cc1)NC1CCN(CCCCCNC(=O)C2CC2c2ccc(Cl)c(Cl)c2)CC1` (stereo not drawn) are within 1.5-fold of each other in XC50: 956 nM for the first, 987 nM for the second.

Compared with `O=C(NCCCCN1CCN(c2cccc(Cl)c2Cl)CC1)c1ccc2c(c1)CCN(C1CCC1)CC2`, `O=C(Nc1ccccc1)c1nn(CCCN2CCC(N3CCCC3)CC2)cc1-c1ccc(Cl)c(Cl)c1` is 3.1-fold lower in XC50: 747 nM for the first, 240 nM for the second.

`O=C(/C=C/c1ccc(Cl)c(Cl)c1)NC1CCC(N2CCC(c3c[nH]c4ccc(O)cc34)CC2)CC1` (stereo not drawn) and `CS(=O)(=O)c1ccc2c(c1)CCN(CCC1CCC(NC(=O)c3cc4cccc(Br)c4[nH]3)CC1)CC2` (stereo not drawn) are within 1.5-fold of each other in XC50: 921 nM for the first, 1040 nM for the second.

Going from `CCCCN1CCN(CC(O)CNC(=O)Nc2ccc(Cl)cc2)CC1` (stereo not drawn) to `O=C(Nc1ccc(Cl)cc1)N(CC1CC2CCC(C1)N2Cc1ccc(C(F)(F)F)cc1)c1ccc(N2CCOCC2)c(F)c1` (stereo not drawn), the XC50 rises from 68.5 nM to 1070 nM (16-fold).

`COc1ccc(Br)cc1C1C2C(=O)N(c3ccc(Br)cc3)C(=O)C2C2(C(=O)O)CC(OCc3ccccc3)CN12` (stereo not drawn) and `COc1cccc(CNC[C@@H](O)[C@H](Cc2ccccc2)NC(=O)c2cc3c4c(c2)c(C(C)C)cn4CCS(=O)(=O)N3C)c1` are within 1.5-fold of each other in XC50: 195 nM for the first, 154 nM for the second.

Compared with `O=C(c1cccc(-c2cccc(-c3nc4cc(C(F)(F)F)ccc4[nH]3)c2)c1)N1CCCCC1CN1CCC(O)C1` (stereo not drawn), `O=C(NCC1CCN(Cc2ccc(F)cc2)C1)c1cc(-c2cccc(C(F)(F)F)c2)cs1` (stereo not drawn) is 3.4-fold higher in XC50: 279 nM for the first, 960 nM for the second.

Compared with `Oc1ccc2c(c1NCC1CCCCC1)CCCC2`, `COc1ccc2nccc(C(=O)NC3CCC(CCN4CCc5cc(C#N)ccc5C4)CC3)c2c1` (stereo not drawn) is 2.3-fold higher in XC50: 514 nM for the first, 1160 nM for the second.

`CC(C)c1ncc(-c2ccncc2)c(C2CCC(CNC(=O)c3ccncc3)CC2)n1` (stereo not drawn) and `CN1CCC(c2csc3ccc(NC(=O)Nc4ccc(-c5ccncc5)c5ccccc45)cc23)CC1` are within 1.5-fold of each other in XC50: 1350 nM for the first, 1020 nM for the second.

Going from `COc1ccc2ncc(F)c(CCN3CCC(CNCc4cccc5c4OCO5)CC3)c2n1` to `Fc1ccc2[nH]cc(CCN3CCC(CNCc4ccccc4)CC3)c2c1`, the XC50 falls from 934 nM to 33 nM (28-fold).

`Clc1ccc(Cn2nc(Br)nc2Br)c(Cl)c1` and `Clc1ccc(-c2csc3ncnc(Cl)c23)cc1` are within 1.5-fold of each other in XC50: 439 nM for the first, 460 nM for the second.

First: CCC[C@@H]([C@@H](CC(C)C)C(=O)N[C@@H](CCCCNC(=O)OCc1ccccc1)C(=O)Nc1ncccn1)N(O)C=O
Second: CC(C)CCCC(C)(C)NC[C@@H](O)[C@H](Cc1ccccc1)NC(=O)c1cc(NC(C)C)cc(N2CCCCS2(=O)=O)c1F
The XC50 of the first is 3.7-fold lower: 59.1 nM for the first, 219 nM for the second.

`Cc1cccc2nc(-c3ccc(-c4ccc(NC(=O)C(C)CN(C)C)cc4)s3)[nH]c12` (stereo not drawn) and `COC(=O)c1cccc(CNCc2ccc(-c3ccc(-c4nc5cc(F)ccc5[nH]4)s3)cc2)c1` are within 1.5-fold of each other in XC50: 409 nM for the first, 588 nM for the second.

`CS(=O)(=O)Nc1cccc(-c2cnc3[nH]cc(-c4ccc(C(=O)O)cc4)c3c2)c1` and `CC(C)(C)c1ccc(-c2cc(C(=O)N[C@@H](CO)C(=O)O)on2)cc1.CC(C)(C)c1ccc(-c2nocc2C(=O)N[C@@H](CO)C(=O)O)cc1` are within 1.5-fold of each other in XC50: 857 nM for the first, 966 nM for the second.

Going from `C=C(C)Cn1cc(C2CCN(CCN3CCC(CNC(=O)c4ccc(-c5ccc(C#N)cc5)cc4)CC3)CC2)c2ccccc21` to `CC(=O)Nc1ccc(S(=O)(=O)N(Cc2cccc(Oc3ccccc3)c2)C2CCN(C/C=C(\C)CCC=C(C)C)CC2)cc1`, the XC50 falls from 433 nM to 192 nM (2.3-fold).

Going from `O=C(Cn1c(SCc2cccc(F)c2F)cc(=O)c2ccccc21)N(CCn1ccnc1)Cc1ccc(-c2ccc(C(F)(F)F)cc2)cc1` to `O=C(CSc1nc2ccccc2c(=O)n1C1CC1)Nc1cc(C(F)(F)F)ccc1Cl`, the XC50 falls from 770 nM to 108 nM (7.1-fold).

Compared with `COc1ccccc1CNc1ncc(-c2ccsc2)c(-c2nccs2)n1`, `O=[N+]([O-])c1cnc(Nc2ccccc2O)nc1Nc1ccccc1O` is 2.7-fold higher in XC50: 333 nM for the first, 897 nM for the second.

Compared with `CCN(CC)CCCCNc1cc(-c2[nH]c(C(C)(C)C)nc2-c2ccc3cc(OC)ccc3c2)ccn1`, `CCN(CC)CCCN(CCCN(CC)CC)c1cc(C)nc(Nc2ccc(Br)cc2)n1` is 2.7-fold lower in XC50: 531 nM for the first, 200 nM for the second.

`Clc1ncnc2scc(-c3ccc(Br)cc3)c12` and `OCCNc1nc(Nc2ccc(Cl)cc2)nc2ccccc12` are within 1.5-fold of each other in XC50: 886 nM for the first, 708 nM for the second.

`COc1ccc(Nc2nc(N3CCCC3)c3ccccc3n2)cc1` and `CC1CCC(NC(=O)c2nn(-c3ccc(Cl)cc3)c(=O)c3ccccc23)CC1` (stereo not drawn) are within 1.5-fold of each other in XC50: 750 nM for the first, 1080 nM for the second.

`Cc1onc(-c2ccccc2)c1-c1nc(NCCC(c2ccccc2)c2ccccc2)no1` and `CCc1cc(COc2ccc(CNCCC(C)C)cc2I)c(OCc2ccccc2)c(COc2ccc(CNCCC(C)C)cc2I)c1` are within 1.5-fold of each other in XC50: 835 nM for the first, 1110 nM for the second.
